This note sets out measurements from patent US20260193264A1, “BENZOYPARAZINE PYRAZINES AND THEIR USES” (FOGHORN THERAPEUTICS INC., priority 2022, published 2026).

For assay [1], the target named is T1, HiBit-BRG1 fusion protein in stable HeLa cell line expressing HiBit-BRG1 and LgBit (Homo sapiens, UniProt P51532).
T1 construct: expressed in transfected cells
Nature of the assay: HiBiT-BRG1 cell-based degradation assay (Nano-Glo HiBiT, 24 h). As to conditions: HeLa HiBit-BRG1/LgBit cells; for DC50: read-out: BRMG1 HiBit Degradation IC50; for Dmax: top dose 30 μM, read-out: BRG1 HiBit Degradation Maximum (%). A digest of the protocol: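 Degradation calculated from NanoBiT luminescence relative to DMSO-treated cells (high) and cells given 2 μM known BRM/BRG1 degrader (low). HeLa cells stably expressing HiBiT-BRG1 plus LgBiT were exposed to compound for 24 h before lytic HiBiT detection.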

The target of assay [2] is T2, HiBiT-BRM fusion protein in stable HeLa cell line (Homo sapiens, UniProt P51531).
T2 construct: expressed in transfected cells
Briefly: HiBiT-BRM cell-based degradation assay (Nano-Glo HiBiT Lytic Detection, 24 h). Also noted: DC50: scale not given here. To be noted: HeLa HiBiT-BRM cells; for DC50: read-out: BRM HiBit Degradation IC50; for BRM HiBit Degradation Maximum (%): top dose 30 μM. A digest of the protocol:
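HeLa stably expressing HiBiT-BRM; 24 h compound exposure, 10-pt 3-fold dilution from 30 μM final, duplicates. Lytic LgBiT complementation, luminescence. % degradation vs DMSO (HC) and 2 μM known BRM/BRG1 degrader (LC).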
(In general: HiBiT is a short tag that completes a luciferase, so light tracks the accessible tagged protein.)

T2 sequence (P51531 whole entry, the tested form may be a part): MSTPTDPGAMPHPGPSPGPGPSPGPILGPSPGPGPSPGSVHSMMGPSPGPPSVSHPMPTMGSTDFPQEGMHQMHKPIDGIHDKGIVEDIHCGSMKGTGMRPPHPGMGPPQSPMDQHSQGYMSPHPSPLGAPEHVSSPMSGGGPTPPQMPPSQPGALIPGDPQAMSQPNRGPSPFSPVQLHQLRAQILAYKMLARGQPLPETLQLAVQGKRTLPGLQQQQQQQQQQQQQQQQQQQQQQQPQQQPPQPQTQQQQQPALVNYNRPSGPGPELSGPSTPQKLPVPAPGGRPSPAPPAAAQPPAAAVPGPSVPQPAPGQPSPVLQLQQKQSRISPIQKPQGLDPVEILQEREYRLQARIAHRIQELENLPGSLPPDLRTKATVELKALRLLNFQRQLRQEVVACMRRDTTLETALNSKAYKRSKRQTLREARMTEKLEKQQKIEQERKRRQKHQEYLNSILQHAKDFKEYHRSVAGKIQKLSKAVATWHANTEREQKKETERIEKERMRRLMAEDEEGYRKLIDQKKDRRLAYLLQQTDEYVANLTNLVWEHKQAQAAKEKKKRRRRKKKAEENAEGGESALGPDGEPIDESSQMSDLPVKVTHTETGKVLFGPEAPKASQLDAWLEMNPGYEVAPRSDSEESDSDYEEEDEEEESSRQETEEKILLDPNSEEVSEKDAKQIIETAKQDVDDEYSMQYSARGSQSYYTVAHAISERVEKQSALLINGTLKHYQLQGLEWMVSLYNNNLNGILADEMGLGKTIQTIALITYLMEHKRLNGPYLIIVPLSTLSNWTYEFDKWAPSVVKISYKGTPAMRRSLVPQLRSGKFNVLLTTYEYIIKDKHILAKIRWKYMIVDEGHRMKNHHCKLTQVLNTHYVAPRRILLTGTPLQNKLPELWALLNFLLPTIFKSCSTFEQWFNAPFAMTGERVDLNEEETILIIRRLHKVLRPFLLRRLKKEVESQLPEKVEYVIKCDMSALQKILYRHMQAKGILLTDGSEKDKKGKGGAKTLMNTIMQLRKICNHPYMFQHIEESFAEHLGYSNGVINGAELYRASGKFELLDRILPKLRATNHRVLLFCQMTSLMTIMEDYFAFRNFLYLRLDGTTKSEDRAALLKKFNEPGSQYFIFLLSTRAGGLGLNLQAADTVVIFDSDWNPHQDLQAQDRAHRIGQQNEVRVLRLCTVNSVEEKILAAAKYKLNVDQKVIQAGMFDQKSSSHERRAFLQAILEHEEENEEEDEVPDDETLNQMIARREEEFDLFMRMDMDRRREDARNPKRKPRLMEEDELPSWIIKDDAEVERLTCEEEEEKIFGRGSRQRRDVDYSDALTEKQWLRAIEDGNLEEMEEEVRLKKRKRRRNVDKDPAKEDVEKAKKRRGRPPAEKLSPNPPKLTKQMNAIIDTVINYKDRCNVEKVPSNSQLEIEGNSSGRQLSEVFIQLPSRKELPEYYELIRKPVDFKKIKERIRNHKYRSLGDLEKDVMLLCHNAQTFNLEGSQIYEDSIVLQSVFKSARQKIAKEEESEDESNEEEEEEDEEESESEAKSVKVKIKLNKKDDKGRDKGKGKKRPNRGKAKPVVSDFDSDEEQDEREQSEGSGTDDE
T1 sequence (P51532 whole entry, the tested form may be a part): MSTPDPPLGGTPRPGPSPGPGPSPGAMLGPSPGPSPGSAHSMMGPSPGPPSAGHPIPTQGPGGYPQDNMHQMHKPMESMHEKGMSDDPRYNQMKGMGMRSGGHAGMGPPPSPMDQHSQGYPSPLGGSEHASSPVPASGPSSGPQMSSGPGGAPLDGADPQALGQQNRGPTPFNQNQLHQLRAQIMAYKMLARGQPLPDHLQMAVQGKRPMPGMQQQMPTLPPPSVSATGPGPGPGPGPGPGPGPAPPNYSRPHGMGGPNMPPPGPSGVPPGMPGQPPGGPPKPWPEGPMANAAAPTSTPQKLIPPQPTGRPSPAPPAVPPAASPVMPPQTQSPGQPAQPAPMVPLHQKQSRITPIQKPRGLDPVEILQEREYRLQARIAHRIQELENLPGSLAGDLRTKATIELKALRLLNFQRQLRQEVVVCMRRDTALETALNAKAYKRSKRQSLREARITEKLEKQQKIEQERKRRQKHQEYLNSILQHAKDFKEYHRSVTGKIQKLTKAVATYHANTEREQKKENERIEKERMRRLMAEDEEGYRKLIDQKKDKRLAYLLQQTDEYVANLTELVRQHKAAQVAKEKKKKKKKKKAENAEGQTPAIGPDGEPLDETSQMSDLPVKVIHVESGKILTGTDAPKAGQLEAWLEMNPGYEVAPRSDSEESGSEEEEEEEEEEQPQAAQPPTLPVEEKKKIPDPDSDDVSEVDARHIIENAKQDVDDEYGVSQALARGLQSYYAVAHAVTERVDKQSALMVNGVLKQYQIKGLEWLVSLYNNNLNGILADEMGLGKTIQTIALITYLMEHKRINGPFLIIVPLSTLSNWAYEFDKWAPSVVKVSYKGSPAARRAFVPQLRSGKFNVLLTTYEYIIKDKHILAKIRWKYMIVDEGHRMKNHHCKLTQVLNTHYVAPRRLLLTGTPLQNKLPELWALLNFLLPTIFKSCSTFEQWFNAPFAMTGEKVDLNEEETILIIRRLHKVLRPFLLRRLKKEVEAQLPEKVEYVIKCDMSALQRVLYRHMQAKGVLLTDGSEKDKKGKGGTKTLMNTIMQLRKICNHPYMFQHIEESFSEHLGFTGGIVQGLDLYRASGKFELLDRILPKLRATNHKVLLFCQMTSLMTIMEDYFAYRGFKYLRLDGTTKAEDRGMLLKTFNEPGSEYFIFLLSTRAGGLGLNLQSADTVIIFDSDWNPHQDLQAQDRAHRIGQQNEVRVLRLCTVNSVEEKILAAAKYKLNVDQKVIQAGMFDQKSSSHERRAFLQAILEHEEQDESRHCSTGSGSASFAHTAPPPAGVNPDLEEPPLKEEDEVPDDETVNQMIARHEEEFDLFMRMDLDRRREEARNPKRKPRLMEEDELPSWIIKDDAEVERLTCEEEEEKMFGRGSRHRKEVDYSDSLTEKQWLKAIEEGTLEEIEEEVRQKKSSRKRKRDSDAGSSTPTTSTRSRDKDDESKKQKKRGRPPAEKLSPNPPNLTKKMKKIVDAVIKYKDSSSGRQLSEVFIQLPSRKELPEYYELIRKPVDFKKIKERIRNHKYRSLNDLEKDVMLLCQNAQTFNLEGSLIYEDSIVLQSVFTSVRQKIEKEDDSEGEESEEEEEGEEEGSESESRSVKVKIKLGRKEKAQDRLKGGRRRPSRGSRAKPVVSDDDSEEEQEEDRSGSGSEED

With `Cc1ncsc1-c1ccc([C@H](C)NC(=O)[C@@H]2C[C@@H](O)CN2C(=O)C(C(C)C)n2cc(N3CCC(C4CN(c5ccc6cc(-c7ccccc7O)nnc6c5)C4)C3)nn2)cc1` (stereo partly drawn) [Compound 235, (2S,4R)-4-hydroxy-1-(2-(4-(3-(1-(3-(2-hydroxyphenyl)cinnolin-7-yl)azetidin-3-yl)pyrrolidin-1-yl)-1H-1,2,3-triazol-1-yl)-3-methylbutanoyl)-N-((S)-1-(4-(4-methylthiazol-5-yl)phenyl)ethyl)pyrrolidine-2-carboxamide], in assay [1], the DC50 is > 0.01 µM and the Dmax is > 75%. In assay [2], the DC50 was < 0.01 µM and the “BRM HiBit Degradation Maximum (%)” value was “A (“A” indicates maximum degradation ≥75%)”.
As to `Cc1ncsc1-c1ccc([C@H](C)NC(=O)[C@@H]2C[C@@H](O)CN2C(=O)[C@@H](c2cc(N3CCN(c4ccc5cc(-c6ccccc6O)nnc5c4)CC3)no2)C(C)C)cc1` [Compound 54, (2S,4R)-4-hydroxy-1-((R)-2-(3-(4-(3-(2-hydroxyphenyl)cinnolin-7-yl)piperazin-1-yl)isoxazol-5-yl)-3-methylbutanoyl)-N-((S)-1-(4-(4-methylthiazol-5-yl)phenyl)ethyl)pyrrolidine-2-carboxamide], the Dmax in assay [1] was < 50%. In assay [2], the DC50 is > 0.01 µM and the “BRM HiBit Degradation Maximum (%)” value is on record as “B (“B” indicates maximum degradation ≥50%)”.
As to `Cc1ncsc1-c1ccc([C@H](C)NC(=O)[C@@H]2C[C@@H](O)CN2C(=O)[C@@H](c2cc(N3CCC4(CC[C@@H](c5ccc6nnc(-c7ccccc7O)cc6c5)C4)CC3)no2)C(C)C)cc1` [Compound 76, (2S,4R)-4-hydroxy-1-((R)-2-(3-((R)-2-(3-(2-hydroxyphenyl)cinnolin-6-yl)-8-azaspiro[4.5]decan-8-yl)isoxazol-5-yl)-3-methylbutanoyl)-N-((S)-1-(4-(4-methylthiazol-5-yl)phenyl)ethyl)pyrrolidine-2-carboxamide], in assay [1], the DC50 is > 0.01 µM and the Dmax is > 75%. In addition, in assay [2], the DC50 is < 0.01 µM and the “BRM HiBit Degradation Maximum (%)” value was “A (“A” indicates maximum degradation ≥75%)”.
Regarding `Cc1ncsc1-c1ccc([C@H](C)NC(=O)[C@@H]2C[C@@H](O)CN2C(=O)C(C(C)C)n2cc(N3CC4(CN(c5ccc6cc(-c7ccccc7O)nnc6c5)C4)C3)cn2)cc1` (stereo in doubt) [Compound 257, (2S,4R)-4-hydroxy-1-((R)-2-(4-(6-(3-(2-hydroxyphenyl)cinnolin-7-yl)-2,6-diazaspiro[3.3]heptan-2-yl)-1H-pyrazol-1-yl)-3-methylbutanoyl)-N-((S)-1-(4-(4-methylthiazol-5-yl)phenyl)ethyl)pyrrolidine-2-carboxamide], in assay [1], the Dmax is < 50%. Moreover, in assay [2], the DC50 is < 0.01 µM and the “BRM HiBit Degradation Maximum (%)” value was “A (“A” indicates maximum degradation ≥75%)”.
For the compound `Cc1ncsc1-c1ccc([C@H](C)NC(=O)[C@@H]2C[C@@H](O)CN2C(=O)[C@@H](c2cc(N3CCC4(CN(c5ccc6cc(-c7ccccc7O)nnc6c5)C4)C3)no2)C(C)C)cc1` [Compound 130, (2S,4R)-4-hydroxy-1-((R)-2-(3-(2-(3-(2-hydroxyphenyl)cinnolin-7-yl)-2,6-diazaspiro[3.4]octan-6-yl)isoxazol-5-yl)-3-methylbutanoyl)-N-((S)-1-(4-(4-methylthiazol-5-yl)phenyl)ethyl)pyrrolidine-2-carboxamide], in assay [1], the DC50 is < 0.01 µM and the Dmax was > 75%. In assay [2], the DC50 is < 0.01 µM and the “BRM HiBit Degradation Maximum (%)” value is reported as “A (“A” indicates maximum degradation ≥75%)”.
Regarding `C#Cc1ccc([C@H](C)NC(=O)[C@@H]2C[C@@H](O)CN2C(=O)[C@@H](c2cc(N3CC4(CN(c5ccc6cc(-c7ccccc7O)nnc6c5)C4)C3)no2)C(C)C)c(OC)c1` [Compound 273, (2S,4R)-N-((S)-1-(4-ethynyl-2-methoxyphenyl)ethyl)-4-hydroxy-1-((R)-2-(3-(6-(3-(2-hydroxyphenyl)cinnolin-7-yl)-2,6-diazaspiro[3.3]heptan-2-yl)isoxazol-5-yl)-3-methylbutanoyl)pyrrolidine-2-carboxamide], the Dmax in assay [1] was < 50%. In assay [2], the DC50 was < 0.01 µM and the “BRM HiBit Degradation Maximum (%)” value is given as “A (“A” indicates maximum degradation ≥75%)”.
For the compound `Cc1ncsc1-c1ccc([C@H](C)NC(=O)[C@@H]2C[C@@H](O)CN2C(=O)[C@@H](c2cc(N3CC4(CN(c5cc(C#N)c6cc(-c7ccccc7O)nnc6c5)C4)C3)no2)C(C)C)cc1` [Compound 173, (2S,4R)-1-((R)-2-(3-(6-(5-cyano-3-(2-hydroxyphenyl)cinnolin-7-yl)-2,6-diazaspiro [3.3]heptan-2-yl)isoxazol-5-yl)-3-methylbutanoyl)-4-hydroxy-N-((S)-1-(4-(4-methylthiazol-5-yl)phenyl)ethyl)pyrrolidine-2-carboxamide], the Dmax in assay [1] is < 50%. In addition, in assay [2], the DC50 was > 0.01 µM and the “BRM HiBit Degradation Maximum (%)” value is listed as “B (“B” indicates maximum degradation ≥50%)”.
Consider `Cc1ncsc1-c1ccc([C@H](C)NC(=O)[C@@H]2C[C@@H](O)CN2C(=O)[C@@H](c2cc(N3CCC(c4ccc5nnc(-c6ccccc6O)cc5c4)CC3)no2)C(C)C)cc1` [Compound 61, (2S,4R)-4-hydroxy-1-((R)-2-(3-(4-(3-(2-hydroxyphenyl)cinnolin-6-yl)piperidin-1-yl)isoxazol-5-yl)-3-methylbutanoyl)-N-((S)-1-(4-(4-methylthiazol-5-yl)phenyl)ethyl)pyrrolidine-2-carboxamide], for which, in assay [1], the Dmax was < 50%. Moreover, in assay [2], the DC50 was > 0.01 µM and the “BRM HiBit Degradation Maximum (%)” value is “A (“A” indicates maximum degradation ≥75%)”.
Take `Cc1ncsc1-c1ccc([C@H](C)NC(=O)[C@@H]2C[C@@H](O)CN2C(=O)[C@@H](c2cc(N3CCC4(CC3)CCN(c3ccc5cc(-c6ccccc6O)nnc5c3)C(=O)C4)no2)C(C)C)cc1` [Compound 103, (2S,4R)-4-hydroxy-1-((R)-2-(3-(9-(3-(2-hydroxyphenyl)cinnolin-7-yl)-8-oxo-3,9-diazaspiro[5.5]undecan-3-yl)isoxazol-5-yl)-3-methylbutanoyl)-N-((S)-1-(4-(4-methylthiazol-5-yl)phenyl)ethyl)pyrrolidine-2-carboxamide]: the Dmax in assay [1] was < 50%. In assay [2], the DC50 is < 0.01 µM and the “BRM HiBit Degradation Maximum (%)” value was “A (“A” indicates maximum degradation ≥75%)”.
The corresponding values for `Cc1ncsc1-c1ccc([C@H](C)NC(=O)[C@@H]2C[C@@H](O)CN2C(=O)[C@@H](c2cc(-c3ccnc(N4CCC(c5ccc6nnc(-c7ccccc7O)cc6c5)CC4)n3)no2)C(C)C)cc1` [Compound 38] are < 50%, > 0.1 µM and “A (“A” indicates maximum degradation ≥75%)”.
With `Cc1ncsc1-c1ccc([C@H](C)NC(=O)[C@@H]2C[C@@H](O)CN2C(=O)[C@@H](c2cc(N3CCC4(CC3)CN(c3ccc5nnc(-c6ccccc6O)cc5c3)CCN4C)no2)C(C)C)cc1` [Compound 165, (2S,4R)-4-hydroxy-1-((R)-2-(3-(4-(3-(2-hydroxyphenyl)cinnolin-6-yl)-1-methyl-1,4,9-triazaspiro[5.5]undecan-9-yl)isoxazol-5-yl)-3-methylbutanoyl)-N-((S)-1-(4-(4-methylthiazol-5-yl)phenyl)ethyl)pyrrolidine-2-carboxamide], in assay [1], the DC50 is < 0.01 µM and the Dmax is > 75%. Moreover, in assay [2], the DC50 was < 0.01 µM and the “BRM HiBit Degradation Maximum (%)” value is reported as “A (“A” indicates maximum degradation ≥75%)”.
`Cc1ncsc1-c1ccc([C@H](C)NC(=O)[C@@H]2C[C@@H](O)CN2C(=O)[C@@H](c2cc(OCC(=O)N3CC(c4ccc5nnc(-c6ccccc6O)cc5c4)C3)no2)C(C)C)cc1` [Compound 6, (2S,4R)-4-hydroxy-1-[(2R)-2-[3-(2-{3-[3-(2-hydroxyphenyl)cinnolin-6-yl]azetidin-1-yl}-2-oxoethoxy)-1,2-oxazol-5-yl]-3-methylbutanoyl]-N-[(1S)-1-[4-(4-methyl-1,3-thiazol-5-yl)phenyl]ethyl]pyrrolidine-2-carboxamide]: the Dmax in assay [1] was < 50%. In addition, in assay [2], the DC50 was > 0.1 µM and the “BRM HiBit Degradation Maximum (%)” value is on record as “B (“B” indicates maximum degradation ≥50%)”.
Turning to `Cc1ncsc1-c1ccc([C@H](C)NC(=O)[C@@H]2C[C@@H](O)CN2C(=O)[C@@H](c2cc(N3CCC4(CCN(c5ccc6cc(-c7ccccc7O)nnc6c5)C4)CC3)no2)C(C)C)cc1` [Compound 83, (2S,4R)-4-hydroxy-1-((R)-2-(3-(2-(3-(2-hydroxyphenyl)cinnolin-7-yl)-2,8-diazaspiro [4.5]decan-8-yl)isoxazol-5-yl)-3-methylbutanoyl)-N-((S)-1-(4-(4-methylthiazol-5-yl)phenyl)ethyl)pyrrolidine-2-carboxamide], in assay [1], the DC50 is > 0.01 µM and the Dmax is > 75%. Further, in assay [2], the DC50 is < 0.01 µM and the “BRM HiBit Degradation Maximum (%)” value was “A (“A” indicates maximum degradation ≥75%)”.
In the case of `Cc1ncsc1-c1ccc([C@H](C)NC(=O)[C@@H]2C[C@@H](O)CN2C(=O)[C@@H](c2cc(N3CC4(CN(Cc5ccc6cc(-c7ccccc7O)nnc6c5)C4)C3)no2)C(C)C)cc1` [Compound 232, (2S,4R)-4-hydroxy-1-((R)-2-(3-(6-((3-(2-hydroxyphenyl)cinnolin-7-yl)methyl)-2,6-diazaspiro[3.3]heptan-2-yl)isoxazol-5-yl)-3-methylbutanoyl)-N-((S)-1-(4-(4-methylthiazol-5-yl)phenyl)ethyl)pyrrolidine-2-carboxamide], the Dmax in assay [1] is < 50%. For the same compound, in assay [2], the DC50 is > 0.01 µM and the “BRM HiBit Degradation Maximum (%)” value was “A (“A” indicates maximum degradation ≥75%)”.
